Each structure is given as a SMILES string. Like-named read-outs stand apart in the source and are kept apart here. Where a SMILES comes first, the peptide text is derived from it. [ ]: non-standard residue; d: D form. Phe(4-NO2) = N[C@@H](Cc1ccc([N+](=O)[O-])cc1)C(=O)O; Phe(4-Cl) = N[C@@H](Cc1ccc(Cl)cc1)C(=O)O; NMeR = CN[C@@H](CCCNC(=N)N)C(=O)O; Aoc = NCCCCCCCC(=O)O; Ahx = NCCCCCC(=O)O; Sar = CNCC(=O)O Where only a bound is given, the exact number is not on record here.

In data set [1] the target is T1, bovine pancreatic trypsin (Bos taurus, UniProt P00760).
T1 sequence (P00760 24-246): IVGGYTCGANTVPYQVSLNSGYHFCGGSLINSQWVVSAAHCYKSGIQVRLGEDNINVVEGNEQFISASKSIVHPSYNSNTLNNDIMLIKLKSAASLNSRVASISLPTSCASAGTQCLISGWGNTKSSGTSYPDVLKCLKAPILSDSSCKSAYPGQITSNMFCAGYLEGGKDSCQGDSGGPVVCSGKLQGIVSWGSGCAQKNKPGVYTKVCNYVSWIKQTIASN
As to the kind of experiment: Metabolic stability in trypsin. Type of data set: in vitro ADME. The note with it: bovine pancreatic trypsin 2.5 μg/mL, pH 8-8.5, 37°C, peptide 100 μM; read-out: Stability (t1/2) Trypsin. The procedure: (§1) Whole blood was collected in-house from adult mixed-gender Wistar rats (RRID: RGD_150520162), and plasma was prepared in 0.2% EDTA as per standard practice. Peptides (final 100 μM) were incubated with pooled rat plasma at 37°C. Samples were collected at different time intervals 0, 5, 10, 15, 30, 60, and 120 min. At each time point, collected samples were immediately added to three volumes of cold ACN. This mixture was vortexed for 30 s and then centrifuged at room temperature (13 K rpm, 5 min). The supernatant was taken and directly placed in glass HPLC vials for LCMS analysis. The protocol for the trypsin stability assay was as for the plasma stability assay except for the […] (bovine pancreatic trypsin 2.5 μg/mL in NH4HCO3 buffer, approx. pH 8–8.5, 37°C).
(§2) Relative concentrations of each peptide from stability assays in plasma or trypsin were analysed using an Agilent binary LC system consisting of an Agilent 1290 Infinity LC pump, Agilent 1,290 auto-sampler coupled with Triple Quad Mass-Spectrometer (MS, model 6460, Agilent Technologies). A bidentate C18 HPLC column (Cogent, 100 Å, […]) with a binary solvent gradient composed of Solvent: A 0.1%v/v formic acid in MQ water and Solvent B: 0.1% v/v formic acid in ACN was used for the separation. The MS parameters were optimised for all compounds to obtain the highest signal in positive Total Ion Current (TIC) mode. Data were analysed using a combination of Microsoft Excel and GraphPad Prism software packages. Data was normalised to time point zero (immediately after compound addition) and expressed in percentages from t = 0. Half-lives were calculated in GraphPad Prism software (v8.3).

Data set [2] concerns the target T2, KOP receptor (Homo sapiens, UniProt P41145). The data set is described as follows: biochemical. Type of data set: binding.
Data set [3] concerns the target T2, KOP receptor. As to the kind of experiment: cell-based. Format: cell-based.
Data set [4] has as its system FCA model of inflammatory nociception. The conditions noted are these: rat.
For a further data set, the target named is T3, DOP receptor (Homo sapiens, UniProt P41143).
T3 construct: expressed in transfected cells; host or cells: HEK293
T3 sequence (P41143 whole entry): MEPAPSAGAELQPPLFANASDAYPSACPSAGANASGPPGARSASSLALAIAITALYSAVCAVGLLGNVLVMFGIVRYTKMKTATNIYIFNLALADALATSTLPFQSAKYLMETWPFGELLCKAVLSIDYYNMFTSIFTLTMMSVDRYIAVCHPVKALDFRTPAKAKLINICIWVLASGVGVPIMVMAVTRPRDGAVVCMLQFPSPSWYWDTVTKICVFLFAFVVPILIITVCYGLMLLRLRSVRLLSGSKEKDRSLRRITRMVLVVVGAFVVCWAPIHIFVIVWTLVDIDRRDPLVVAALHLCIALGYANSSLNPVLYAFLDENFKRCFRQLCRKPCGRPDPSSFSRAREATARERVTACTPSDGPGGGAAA
As to the kind of experiment: cell-based.

The target of another data set is T4, MOP receptor (Homo sapiens, UniProt P35372).
T4 construct: expressed in transfected cells; host or cells: HEK293
T4 sequence (P35372 whole entry): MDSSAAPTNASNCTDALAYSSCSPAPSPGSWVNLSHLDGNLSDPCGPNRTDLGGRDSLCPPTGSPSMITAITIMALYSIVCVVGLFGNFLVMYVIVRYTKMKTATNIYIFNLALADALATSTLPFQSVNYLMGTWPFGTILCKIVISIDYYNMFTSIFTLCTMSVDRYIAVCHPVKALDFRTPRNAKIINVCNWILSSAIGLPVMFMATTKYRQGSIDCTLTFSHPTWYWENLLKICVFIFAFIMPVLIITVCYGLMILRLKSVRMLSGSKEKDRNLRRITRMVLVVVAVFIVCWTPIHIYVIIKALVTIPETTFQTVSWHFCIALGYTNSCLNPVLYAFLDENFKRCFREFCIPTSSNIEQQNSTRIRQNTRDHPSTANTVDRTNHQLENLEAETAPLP
The data set is described as follows: cell-based.

Data set [5] addresses T2, KOP receptor. Type of data set: cell-based.
Data set [6] concerns pERK1/2 in HEK293-KOP receptor cells. Format: cell-based.
A short description of data set [7]: Metabolic stability in rat plasma. The conditions noted are these: pooled rat plasma, 37°C, peptide 100 μM; for half-life: rat, plasma, read-out: Stability (t1/2) Plasma. Type of data set: in vitro ADME. The procedure:
as §1, §2

T2 sequence (P41145 whole entry): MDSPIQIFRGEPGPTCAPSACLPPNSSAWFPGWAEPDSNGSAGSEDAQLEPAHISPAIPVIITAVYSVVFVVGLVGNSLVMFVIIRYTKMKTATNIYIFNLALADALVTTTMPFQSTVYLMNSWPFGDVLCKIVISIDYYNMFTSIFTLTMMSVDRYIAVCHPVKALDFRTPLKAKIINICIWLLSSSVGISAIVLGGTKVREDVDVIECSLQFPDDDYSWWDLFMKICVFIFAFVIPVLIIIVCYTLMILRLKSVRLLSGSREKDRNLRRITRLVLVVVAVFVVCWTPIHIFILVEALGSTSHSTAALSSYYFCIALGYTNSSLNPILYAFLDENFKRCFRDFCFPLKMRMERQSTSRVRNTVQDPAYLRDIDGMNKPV

For orientation: Ki means the equilibrium dissociation constant of an inhibitor or competing ligand from its target. Lower therefore signals a stronger hold on the target. One may read the IC50 as the midpoint of a concentration-inhibition curve. As a reminder, the EC50 is the concentration giving half of the maximal effect. Turning to `CC(C)C[C@H](NC(=O)[C@H](Cc1ccc([N+](=O)[O-])cc1)NC(=O)CN(C)C(=O)[C@@H](N)Cc1ccc(O)cc1)C(=O)N(C)[C@@H](CCCNC(=N)N)C(=O)N(C)[C@@H](CCCNC(=N)N)C(N)=O` [KA311] (H-Y[Sar][Phe(4-NO2)]L[NMeR][NMeR]-NH2), the half-life in data set [1] was above 1000 min. At KOP receptor [2], this compound yielded a Ki of 180 nM. The compound further returned an IC50 on KOP receptor [2] (IC50) of 1950 nM. For the same compound, the EC50 on KOP receptor [3] is 31 nM; on DOP receptor, above 10000 nM; on MOP receptor, above 10000 nM. For the same compound, the “selectivity for KOP receptor over MOP receptor and DOP receptor” value on KOP receptor [3] is recorded as above 1000 fold. In addition, the “paw withdrawal threshold in the contralateral (uninflamed, untreated) paw” value in data set [4] (in vivo) was “not observed”.

`CC(C)C[C@H](NC(=O)[C@H](Cc1ccc(Cl)cc1)NC(=O)CN(C)C(=O)[C@@H](N)Cc1ccc(O)cc1)C(=O)N[C@@H](CCCNC(=N)N)C(=O)N[C@H](CCCNC(=N)N)C(=O)NCCCCCCCC(N)=O` [KA305] (H-Y[Sar][Phe(4-Cl)]LR[dR][Aoc]-NH2): the “KOP receptor desensitisation (maximal cAMP effect after pre-treatment)” value at KOP receptor [5] is reported as “modest but significant desensitisation”. The half-life in [1] amounted to 4.9 min. At KOP receptor [2], the “Log IC50” value was -7.14 and the “binding affinity to KOP receptor (in words)” value is listed as “strong binders”. On KOP receptor [2] (read-out: IC50), the IC50 stood at 72.6 nM. Also, at KOP receptor [3], the “inhibition of peptide cAMP modulation by naloxone” value is “significantly blocked”. In addition, in data set [4], the “overall efficacy (AUC of in vivo effect)” value is “significantly better efficacy than U50488H”. Also, in [4] (in vivo), the “Efficacy Index (Ie)” value is on record as “statistically significant higher Ie over morphine”, the “antinociceptive activity (paw withdrawal threshold)” value is listed as “showed antinociceptive activity”, the “effect of naloxone on peptide-induced antinociception” value was “blocked by pre-administration of naloxone” and the “effect on oedema of the affected paw” value is “without effecting oedema”. The “paw withdrawal threshold in the contralateral (uninflamed, untreated) paw” value in data set [4] (in vivo) is given as “not observed”. Moreover, in data set [6], the “bias factor β (cAMP versus pERK)” value is given as “bias towards cAMP” and the “pERK1/2 expression / activity” value is on record as “influenced pERK induction at higher concentrations”.

As to `CC(C)C[C@H](NC(=O)[C@H](Cc1ccc([N+](=O)[O-])cc1)NC(=O)CN(C)C(=O)[C@@H](N)Cc1ccc(O)cc1)C(=O)N[C@@H](CCCNC(=N)N)C(=O)N[C@H](CCCNC(=N)N)C(N)=O` [KA204] (H-Y[Sar][Phe(4-NO2)]LR[dR]-NH2), the half-life was 15.4 min in data set [1] and above 60 min in [7]. Also, the concentration for half-maximal inhibition (IC50) at KOP receptor [2] and against KOP receptor [2] (IC50) was 30.2 nM in each case. On KOP receptor [2], this compound came in with a Ki of 2.8 nM. Besides, the EC50 at KOP receptor [3] was 7.5 nM; at DOP receptor it was above 10000 nM; on MOP receptor it was above 10000 nM. Also, the “selectivity for KOP receptor over MOP receptor and DOP receptor” value at KOP receptor [3] is reported as above 1000 fold. The “paw withdrawal threshold in the contralateral (uninflamed, untreated) paw” value in data set [4] (in vivo) is listed as “not observed”. Also, the “Stability (t1/2) Plasma” value in [7] is 71 min.

In the case of `CC(C)C[C@H](NC(=O)[C@H](Cc1ccc(Cl)cc1)NC(=O)CN(C)C(=O)[C@@H](N)Cc1ccc(O)cc1)C(=O)N[C@@H](CCCNC(=N)N)C(=O)N[C@H](CCCNC(=N)N)C(=O)NCCCCCC(N)=O` [KA304] (H-Y[Sar][Phe(4-Cl)]LR[dR][Ahx]-NH2), the figures for the half-life in data set [1] and in data set [7] were 8.33 min and 79 min, respectively. Besides, the EC50 at KOP receptor [3] is 3.64 nM; on DOP receptor, 1600 nM; on MOP receptor, 363 nM. Moreover, the “Selectivity (fold) KOP/DOP” value at DOP receptor came to 440 fold; on MOP receptor, 100 fold.

As to `CN1CC[C@]23c4c5ccc(O)c4O[C@H]2[C@@H](O)C=C[C@H]3[C@H]1C5` [Morphine, reference compound], the “paw withdrawal threshold in the contralateral (uninflamed, untreated) paw” value in data set [4] (in vivo) is listed as “significantly reduced”.

Consider `CC(C)C[C@H](NC(=O)[C@H](Cc1ccccc1)NC(=O)CNC(=O)CNC(=O)[C@@H](N)Cc1ccc(O)cc1)C(=O)N[C@@H](CCCNC(=N)N)C(=O)N[C@@H](CCCNC(=N)N)C(=O)O` [Dyn 1-7, reference compound], for which, on KOP receptor [5], the “KOP receptor desensitisation (maximal cAMP effect after pre-treatment)” value was “no discernible desensitisation”. Also, the half-life in data set [1] was below 1 min; in data set [7] it was 8.1 min. The EC50 amounted to 870 nM on DOP receptor (read-out: Activity (EC50) DOP) and 3740 nM on MOP receptor (read-out: Activity (EC50) MOP). Moreover, the “bias factor β (cAMP versus pERK)” value in data set [6] is listed as “bias towards pERK”. Also, in data set [6], the “pERK1/2 expression / activity” value is “time and concentration-dependent pERK expression”.

Values taken from paper PMC10020352 (Frontiers in Pharmacology, 2023).
